By IC50 is commonly meant the concentration that inhibits the measured activity by half.

This is an account of results in patent publication US20220411381A1, “PYRIMIDINEDIONE DERIVATIVES” (Bayer Aktiengesellschaft, priority 2019, published 2022).

Where two headings read alike, the source gives them in different places.

One assay has as its system MDA-MB231 cells. The experiment in a line: In vitro assay 2: BCAT cellular assay, leucine in medium of MDA-MB231 cells. As to conditions: 24 hours incubation, leucine level in medium (LeuDH/diaphorase/resazurin readout), read-out: MDAMB-231 IC50. In kind it is cell-based. The protocol:
In Vitro Assay 2: BCAT Cellular Assay
Levels of leucine were measured in medium of different tumor cell lines. The enzyme BOAT (Branched chain amino acid transferase) catalyzes the consumption of leucine.
Cells (U87-MG and MDA-MB231 from ATCC) were grown in Dulbecco's Modified Eagle Medium (DMEM) containing 10% fetal calf serum. They were harvested by trypsin and seeded into 96-well plates. Cells were incubated overnight at 37° C. in an atmosphere containing 5% carbon dioxide. The next day test compounds were added to each cell well. The final concentration of dimethylsulfoxide (DMSO) was 0.1% and DMSO controls were included. The plates were then placed in an incubator for 24 hours.
Leucine was measured in an enzymatic readout with leucine dehydrogenase (LeuDH) and diaphorase. Medium is deproteinized with perchloric acid. 30 μl of 1 M aqueous perchloric acid was added to each well and the plates were centrifuged.
For orientation: Alamar Blue is a resazurin reagent that responds to reducing activity.

For assay [1], the target named is T1, recombinant human BCAT1 enzyme (Homo sapiens, UniProt P54687).
T1 construct: purchased ATGen (South Korea) ATGP1479
T1 sequence (P54687 1-386): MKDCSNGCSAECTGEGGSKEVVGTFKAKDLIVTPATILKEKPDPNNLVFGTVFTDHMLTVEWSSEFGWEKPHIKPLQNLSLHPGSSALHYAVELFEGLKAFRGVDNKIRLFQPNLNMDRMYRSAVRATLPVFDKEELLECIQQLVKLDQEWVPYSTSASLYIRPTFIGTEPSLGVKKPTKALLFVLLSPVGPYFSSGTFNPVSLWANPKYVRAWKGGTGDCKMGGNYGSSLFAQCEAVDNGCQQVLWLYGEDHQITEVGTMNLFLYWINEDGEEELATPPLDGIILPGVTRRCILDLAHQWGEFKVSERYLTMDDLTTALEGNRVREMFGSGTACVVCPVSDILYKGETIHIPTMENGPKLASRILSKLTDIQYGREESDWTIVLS
Put plainly: In vitro assay 1a: BCAT1 biochemical assay (coupled LeuDH/NADH fluorescence readout). The procedure:
(§1) In Vitro Assay 1a and 1b: BCAT1 and BCAT2 Biochemical Assay
(§2) BOAT (Branched chain amino acid transferase) catalyzes transamination of the branched chain amino acid leucine to α-ketoisocaproate (KIC). The BOAT enzymatic reaction was measured in a coupled readout with leucine dehydrogenase (LeuDH) which catalyzes the Nicotinamide adenine dinucleotide (NADH) dependent reduction of KIC to leucine. NADH consumption is measured by fluorescent readout.
(§3) The biochemical reactions were performed at 32° C. in 384-well plates using a reaction volume of 51 μl and the following assay buffer conditions: 50 mM HEPES (2-[4-(2-hydroxyethyl)piperazin-1-yl]ethanesulfonic acid) pH 8.0, 50 mM aqueous solution of ammonium sulfate, 1 mM ethylenediaminetetraacetic acid, 2 mM dithiothreitol, 0.01% bovine serum albumine, 0.005% Brij 35 detergent, 0.5 μM PLP (pyridoxalphosphate), 10 μM NADH, and 50 μM α-ketoglutarate), and 100 μM leucine. […] Test compounds were used in a concentration range between 0.005 and 30 μM. The final DMSO concentration was 2%.
(§4) The reaction was initiated by addition of substrates (Leucine, α-KG, NADH).

The target in assay [2] is T2, recombinant human BCAT2 enzyme (Homo sapiens, UniProt O15382).
T2 construct: purchased ATGen (South Korea) ATGP1523
T2 sequence (O15382 28-392): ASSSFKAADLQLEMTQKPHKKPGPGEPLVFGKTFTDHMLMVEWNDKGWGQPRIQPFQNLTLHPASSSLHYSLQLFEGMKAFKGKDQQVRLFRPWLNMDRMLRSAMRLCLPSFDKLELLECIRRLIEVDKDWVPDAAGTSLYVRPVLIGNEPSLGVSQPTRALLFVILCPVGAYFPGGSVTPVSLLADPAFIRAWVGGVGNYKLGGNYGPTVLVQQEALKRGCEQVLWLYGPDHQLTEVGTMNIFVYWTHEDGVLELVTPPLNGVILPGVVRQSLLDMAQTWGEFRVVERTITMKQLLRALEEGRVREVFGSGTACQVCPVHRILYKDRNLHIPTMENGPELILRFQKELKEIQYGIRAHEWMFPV
Put plainly: In vitro assay 1b: BCAT2 biochemical assay (coupled LeuDH/NADH fluorescence readout). On BCAT2 IC50 [M]: recombinant human BCAT2 0.75 nM. The protocol:
as §1, §2, §3, §4

Setting [3] is: recombinant human BCAT1 […], 32° C., 100 μM leucine, 50 μM α-ketoglutarate, NADH fluorescence over 90 min, read-out: BCAT1 IC50.
Where [4] appears, read: recombinant human BCAT2 […], 32° C., 100 μM leucine, 50 μM α-ketoglutarate, NADH fluorescence over 90 min, read-out: BCAT2 IC50.

For the molecule `N#Cc1cc(F)c(-n2c(=O)cc(C(F)(F)F)[nH]c2=O)cc1Oc1c(F)cccc1F` [Example 63, 2-(2,6-Difluorophenoxy)-4-[2,6-dioxo-4-(trifluoromethyl)-3,6-dihydropyrimidin-1 (2H)-yl]-5-fluorobenzonitrile], the IC50 in the assay with MDA-MB231 cells (Homo sapiens, MDA-MB-231, 24 h) is > 30 µM.
`COc1cc(C#N)c(Oc2ccccc2C)cc1-n1c(=O)cc(-c2ccccc2)[nH]c1=O` (racemic) [Example 42, 4-(2,6-Dioxo-4-phenyl-3,6-dihydropyrimidin-1(2H)-yl)-5-methoxy-2-(2-methylphenoxy)benzonitrile (rac)]: the IC50 in assay [1] (setting [3]) was 7.25e-07 M; in assay [2] (setting [4]) it was 1e-05 M; in the assay with MDA-MB231 cells (Homo sapiens, MDA-MB-231, 24 h), > 30 µM.
For the molecule `Cc1ccccc1Oc1cc(-n2c(=O)cc(C(F)(F)F)[nH]c2=O)c(C)cc1C#N` (racemic) [Example 7, 4-[2,6-Dioxo-4-(trifluoromethyl)-3,6-dihydropyrimidin-1(2H)-yl]-5-methyl-2-(2-methylphenoxy)benzonitrile (rac)], the IC50 in assay [1] (BCAT1 IC50 [M]) was 2.87e-07 M; in assay [2] (BCAT2 IC50 [M]) it was 1.8e-06 M; in the assay with MDA-MB231 cells, > 30 µM; with MDA-MB231 cells (Homo sapiens, MDA-MB-231, 24 h), 30 µM.
As for `Cc1ccccc1Oc1cc(-n2c(=O)cc(S(=O)(=O)c3ccccc3)[nH]c2=O)c(F)cc1C#N` [Example 74, 4-[4-(Benzenesulfonyl)-2,6-dioxo-3,6-dihydropyrimidin-1(2H)-yl]-5-fluoro-2-(2-methylphenoxy)benzonitrile], the IC50 was 30 µM in the assay on MDA-MB231 cells and > 30 µM in the assay with MDA-MB231 cells (Homo sapiens, MDA-MB-231, 24 h).
In the case of `COc1cc(Cl)c(Oc2ccccc2C)cc1-n1c(=O)cc(C(F)(F)F)[nH]c1=O` (racemic) [Example 27, 3-[4-Chloro-2-methoxy-5-(2-methylphenoxy)phenyl]-6-(trifluoromethyl)pyrimidine-2,4(1H,3H)-dione (rac)], the IC50 in assay [1] (setting [3]) was 4.38e-07 M; in assay [2] (setting [4]), 4.33e-06 M; with MDA-MB231 cells, 20 µM; with MDA-MB231 cells (Homo sapiens, MDA-MB-231, 24 h), > 30 µM.
With `COc1cc(C#N)c(Oc2ccccc2C)cc1-n1c(=O)cc(S(=O)(=O)c2ccccc2)[nH]c1=O` (racemic) [Example 76, 4-[4-(Benzenesulfonyl)-2,6-dioxo-3,6-dihydropyrimidin-1(2H)-yl]-5-methoxy-2-(2-methylphenoxy)benzonitrile (rac)], the IC50 is 4.52e-07 M in assay [2] (setting [4]); 20 µM in the assay on MDA-MB231 cells; > 30 µM in the assay with MDA-MB231 cells (Homo sapiens, MDA-MB-231, 24 h).
`COc1cc(C#N)c(Oc2ccccc2C)cc1-n1c(=O)cc(C(F)(F)F)[nH]c1=O` (single isomer, unassigned) [Example 6, 4-[2,6-Dioxo-4-(trifluoromethyl)-3,6-dihydropyrimidin-1 (2H)-yl]-5-methoxy-2-(2-methylphenoxy)benzonitrile (atrop 2)]: the values for the IC50 (in assay [1] (BCAT1 IC50 [M]); in the assay on MDA-MB231 cells) were 6.25e-07 M and > 30 µM, respectively.
Consider `Cc1ccccc1Oc1cc(-n2c(=O)cc(C3CC3)[nH]c2=O)c(F)cc1C#N` [Example 72, 4-(4-Cyclopropyl-2,6-dioxo-3,6-dihydropyrimidin-1(2H)-yl)-5-fluoro-2-(2-methylphenoxy)benzonitrile], for which the IC50 in assay [1] (setting [3]) was 2e-06 M; in assay [2] (setting [4]), 2.5e-05 M; with MDA-MB231 cells (Homo sapiens, MDA-MB-231, 24 h), > 30 µM.
On the same counts, the results for `Cc1ccccc1Oc1cc(-n2c(=O)cc(-c3ccccc3)[nH]c2=O)c(F)cc1C#N` [Example 49, 4-(2,6-Dioxo-4-phenyl-3,6-dihydropyrimidin-1(2H)-yl)-5-fluoro-2-(2-methylphenoxy)benzonitrile] are 6.98e-07 M, 4.93e-06 M and > 30 µM.
In the case of `Cc1ccccc1Oc1cc(-n2c(=O)cc(C(F)(F)F)[nH]c2=O)cnc1C#N` [Example 47, 5-[2,6-Dioxo-4-(trifluoromethyl)-3,6-dihydropyrimidin-1(2H)-yl]-3-(2-methylphenoxy)pyridine-2-carbonitrile], the IC50 in assay [1] (setting [3]) is 6.5e-07 M; in assay [2] (setting [4]), 3.2e-06 M; in the assay with MDA-MB231 cells (Homo sapiens, MDA-MB-231, 24 h) it was > 30 µM.
Take `COc1cc(C#N)c(Oc2ccccc2C)cc1-n1c(=O)cc(C(F)(F)F)[nH]c1=O` (racemic) [Example 4, 4-[2,6-Dioxo-4-(trifluoromethyl)-3,6-dihydropyrimidin-1(2H)-yl]-5-methoxy-2-(2-methylphenoxy)benzonitrile (rac)]: the IC50 was 1.62e-07 M in assay [1] (BCAT1 IC50 [M]) and > 30 µM with MDA-MB231 cells (Homo sapiens, MDA-MB-231, 24 h).
Consider `COc1cc(C#N)c(Oc2ccccc2C)cc1-n1c(=O)cc(Br)[nH]c1=O` (racemic) [Example 19, 4-[4-Bromo-2,6-dioxo-3,6-dihydropyrimidin-1(2H)-yl]-5-methoxy-2-(2-methylphenoxy)benzonitrile (rac)], for which the IC50 in assay [1] (setting [3]) was 2e-07 M; in assay [2] (setting [4]), 3.5e-06 M; with MDA-MB231 cells (Homo sapiens, MDA-MB-231, 24 h) it was > 30 µM.
On the same counts, the results for `COc1cc(C#N)c(Oc2ccccc2C)cc1-n1c(=O)cc(S(C)(=O)=O)[nH]c1=O` (racemic) [Example 79, 4-[4-(Methanesulfonyl)-2,6-dioxo-3,6-dihydropyrimidin-1(2H)-yl]-5-methoxy-2-(2-methylphenoxy)benzonitrile (rac)] are 7e-07 M, 4e-06 M and > 30 µM.
As to `Cc1cccc(C)c1Oc1cc(-n2c(=O)cc(C(F)(F)F)[nH]c2=O)c(Cl)cc1C#N` (racemic) [Example 38, 5-Chloro-2-(2,6-dimethylphenoxy)-4-(2,6-dioxo-4-(trifluoromethyl)-2,3-dihydropyrimidin-1(6H)-yl)benzonitrile (rac)], the IC50 was 2.83e-07 M in assay [1] (setting [3]) and 1.67e-06 M in assay [2] (setting [4]).
Take `Cc1cccc(N)c1Oc1cc(-n2c(=O)cc(C(F)(F)F)[nH]c2=O)c(F)cc1C#N` [Example 65, 2-(2-Amino-6-methylphenoxy)-4-[2,6-dioxo-4-(trifluoromethyl)-3,6-dihydropyrimidin-1(2H)-yl]-5-fluorobenzonitrile]: the IC50 in assay [1] (setting [3]) was 5e-07 M; in assay [2] (setting [4]), 5.5e-06 M; in the assay on MDA-MB231 cells (Homo sapiens, MDA-MB-231, 24 h), > 30 µM.
As to `COc1cc(C#N)c(Oc2ccccc2C)cc1-n1c(=O)cc(-c2ccccc2)[nH]c1=O` (single isomer, unassigned) [Example 44, 4-(2,6-Dioxo-4-phenyl-3,6-dihydropyrimidin-1(2H)-yl)-5-methoxy-2-(2-methylphenoxy)benzonitrile (atrop 2)], the IC50 in assay [1] (setting [3]) came out at 5.5e-07 M; in assay [2] (setting [4]), 6.5e-06 M.
As to `COc1cc(C#N)c(Oc2ccccc2C)cc1-n1c(=O)cc(C2CC2)[nH]c1=O` (racemic) [Example 23, 4-(4-Cyclopropyl-2,6-dioxo-3,6-dihydropyrimidin-1(2H)-yl)-5-methoxy-2-(2-methylphenoxy)benzonitrile (rac)], the IC50 in assay [1] (setting [3]) is 1.8e-07 M; with MDA-MB231 cells, > 30 µM; in the assay on MDA-MB231 cells (Homo sapiens, MDA-MB-231, 24 h), 30 µM.
As for `Cc1ccccc1Oc1cc(-n2c(=O)cc(C(F)(F)F)[nH]c2=O)c(Br)cc1C#N` (racemic) [Example 18, 5-Bromo-4-[2,6-dioxo-4-(trifluoromethyl)-3,6-dihydropyrimidin-1(2H)-yl]-2-(2-methylphenoxy)benzonitrile (rac)], the 50% inhibitory concentration (IC50) in assay [1] (setting [3]) is 2e-07 M; in assay [2] (setting [4]) it was 2.6e-06 M.
